Literature values as cited in patent US6376242B1, “Methods and compositions for treating platelet-related disorders using MPL pathway inhibitory agents” (Emory University, priority 1999, dated 2002).

Tested on: megakaryocyte cell line
Conditions: in vitro

N#C/C(=C/c1ccc(O)c(O)c1)C(=O)NCc1ccccc1 [AG-490]
inhibition of proliferation of a megakaryocyte cell line: inhibit proliferation of a megakaryocyte cell line in vitro
